According to patent US5968795A, “Biaryl acetylenes as inhibitors of matrix metalloproteases” (Bayer Corporation, priority 1997, dated 1999):
Where two headings read alike, the source gives them in different places.

Columns and labels:
[1] = target: T1, Recombinant Human CHO Stromelysin (MMP-3) (Homo sapiens, UniProt P08254); assay: P218 quenched fluorescence assay for MMP inhibition: MMP-3; assay type: biochemical; conditions: P218 substrate 6 μM, pH 6.5, 25 min at 37° C.; read-out: MMP-3 Fluorogenic IC-50
T1 construct: made in house; host or cells: CHO cells (as described by Housley et al., J. Biol. Chem. 268, 4481, 1993)
Description: (§1) P218 Quenched Fluorescence Assay for MMP Inhibition:
(§2) The P218 quenched fluorescence assay (Microfluorometric Profiling Assay) is a modification of that originally described by Knight, et al., FEBS Lett. 296, 263, 1992 for a related substance and a variety of matrix metalloproteinases (MMPs) in cuvettes. The assay was run with each invention compound and the three MMPs, MMP-3, MMP-9 and MMP-2, analyzed in parallel, adapted as follows for a 96-well microtiter plate and a Hamilton AT® workstation.
(§3) P218 Fluorogenic Substrate:
(§4) P218 is a synthetic substrate containing a 4-acetyl-7-methoxycoumarin (MCA) group in the N-terminal position and a 3-[2,4-dinitrophenyl]-L-2,3-diaminopropionyl (DPA) group internally. This is a modification of a peptide reported by Knight (1992) that was used as a substrate for matrix metalloproteinases. Once the P218 peptide is cleaved (putative clip site at the Ala-Leu bond), the fluorescence of the MCA group can be detected on a fluorometer with excitation at 328 nm and emission at 393 nm. P218 is currently being produced BACHEM exclusively for Bayer. P218 has the structure:
(§5) H-MCA-Pro-Lys-Pro-Leu-Ala-Leu-DPA-Ala-Arg-NH2 (MW 1332.2)
Recombinant Human CHO Stromelysin (MMP-3)
Recombinant Human CHO Pro-MMP-3: Human CHO pro-stromelysin-257 (pro-MMP-3) was expressed and purified as described by Housley, et al., J. Biol. Chem. 268, 4481, 1993.
Activation of Pro-MMP-3: Pro-MMP-3 at 1.72 μM (100 μg/mL) in 5 mM Tris at pH 7.5, 5 mM CaCl2, 25 mM NaCl, and 0.005% Brij-35 MMP-3) activation buffer) was activated by incubation with TPCK (N-tosyl-(L)-phenylalanine chloromethyl ketone) trypsin (1:100 w/w to pro-MMP-3) at 25° C. for 30 min. The reaction was stopped by addition of soybean trypsin inhibitor (SBTI; 5:1 w/w to trypsin concentration). This activation protocol results in the formation of 45 kDa active MMP-3, which still contains the C-terminal portion of the enzyme.
(§6) Hamiltion Microlab AT Plus: The MMP-Profiling Assay is performed robotically on a Hamilton MicroLab AT Plus®. The Hamilton is programmed to: (1) serially dilute up to 11 potential inhibitors automatically from a 2.5 mM stock in 100% DMSO; (2) distribute substrate followed by inhibitor into a 96 well Cytofluor plate; and (3) add a single enzyme to the plate with mixing to start the reaction. Subsequent plates for each additional enzyme are prepared automatically by beginning the program at the substrate addition point, remixing the diluted inhibitors and beginning the reaction by addition of enzyme. In this way, all MMP assays were done using the same inhibitor dilutions.
(§7) Millipore Cytofluor II. Following incubation, the plate was read on a Cytofluor II fluorometric plate reader with excitation at 340 nm and emission at 395 nm with the gain set at 80.
(§8) Microfluorometric Reaction Buffer (MRB): Dilution of test compounds, enzymes, and P218 substrate for the microfluorometric assay were made in microfluorometric reaction buffer consisting of 50 mM 2-(N-morpholino)ethanesulfonic acid (MES) at pH 6.5 with 10 mM CaCl2, 150 mM NaCl, 0.005% Brij-35 and 1% DMSO.
(§9) MMP Microfluorometric Profiling Assay. The assay is done with a final substrate concentration of 6 μM P218 and approximately 0.5 to 0.8 nM MMP with variable drug concentrations. The Hamilton is programmed to serially dilute up to 11 compounds from a 2.5 mM stock (100% DMSO) to 10x the final compounds concentrations in the assay. Initially, the instrument delivers various amounts of microfluoromentric reaction buffer (MRB) to a 96 tube rack of 1 ml Marsh dilution tubes. The instrument then picks up 20 μl of inhibitor (2.5 mM) from the sample rack and mixes it with a buffer in row A of the Marsh rack, resulting in a 50 μM drug concentration. The inhibitors are then serially diluted to 10, 5, 1, 0.2, 0.05 and 0.01 μM. […]

[2] = target: T2, Human Recombinant Gelatinase B (MMP-9) (Homo sapiens, UniProt P14780); assay: P218 quenched fluorescence assay for MMP inhibition: MMP-9; assay type: biochemical; conditions: P218 substrate 6 μM, pH 6.5, 25 min at 37° C.; for IC50: read-out: MMP-9 Fluorogenic IC-50; for MMP-9 Fluorogenic, I (percent inhibition): inhibitor concentration not given
T2 construct: made in house; host or cells: baculovirus protein expression system
Description: as §1, §2, §3, §4, §5
Preparation of Human Recombinant Pro-Gelatinase B (MMP-9):
Recombinant Human Pro-MMP-9: Human pro-gelatinase B (pro-MMP-9) derived from U937 cDNA as described by Wilhelm, et al. J. Biol. Chem. 264, 17213, 1989 was expressed as the full-length form using a baculovirus protein expression system. The pro-enzyme was purified using methods previously described by Hibbs, et al. J. Biol. Chem. 260, 2493, 1984.
Activation of Pro-MMP-9: Pro-MMP-2 20 μg/ml in 50 mM Tris at pH 7.4, 10 mM CaCl2, 150 mM NaCl, and 0.005% Brij-35 (MMP-9 activation buffer) was activated by incubation with 0.5 mM p-aminophenylmercuric acetate (APMA) for 3.5 h at 37° C. The enzyme was dialyzed against the same buffer to revmove the APMA.
as §6, §7, §8, §9

[3] = target: T3, Human Recombinant Gelatinase A (MMP-2) (Homo sapiens, UniProt P08253); assay: P218 quenched fluorescence assay for MMP inhibition: MMP-2; assay type: biochemical
T3 sequence (P08253 110-660): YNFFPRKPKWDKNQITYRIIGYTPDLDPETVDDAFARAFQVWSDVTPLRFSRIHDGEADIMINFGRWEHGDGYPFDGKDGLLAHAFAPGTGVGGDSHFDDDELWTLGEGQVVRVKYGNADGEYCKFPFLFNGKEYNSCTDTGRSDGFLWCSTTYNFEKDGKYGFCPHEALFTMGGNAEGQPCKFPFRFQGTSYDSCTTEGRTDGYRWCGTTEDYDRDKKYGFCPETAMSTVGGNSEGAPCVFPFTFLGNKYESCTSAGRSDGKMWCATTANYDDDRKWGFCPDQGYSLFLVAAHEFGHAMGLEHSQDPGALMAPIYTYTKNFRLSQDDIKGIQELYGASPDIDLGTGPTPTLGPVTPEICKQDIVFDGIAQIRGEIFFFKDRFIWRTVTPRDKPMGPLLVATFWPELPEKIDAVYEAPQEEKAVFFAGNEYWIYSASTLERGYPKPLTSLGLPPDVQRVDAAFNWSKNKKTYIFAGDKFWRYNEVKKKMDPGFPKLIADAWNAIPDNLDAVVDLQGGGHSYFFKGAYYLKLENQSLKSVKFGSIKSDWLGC

[4] = Child, et al., J. Pharm. Sci. 66, 466, 1977; cited from earlier work
[5] = tested on: human colon tumor; conditions: given intraperitoneally; orthotopic model in nude mice; cited from earlier work
[6] = tested on: human ovarian carcinoma xenografts; conditions: given intraperitoneally; cited from earlier work
[7] = P218 substrate 6 μM, pH 6.5, 25 min at 37° C., read-out: MMP-2 Fluorogenic IC-50

T1 sequence (P08254 100-477): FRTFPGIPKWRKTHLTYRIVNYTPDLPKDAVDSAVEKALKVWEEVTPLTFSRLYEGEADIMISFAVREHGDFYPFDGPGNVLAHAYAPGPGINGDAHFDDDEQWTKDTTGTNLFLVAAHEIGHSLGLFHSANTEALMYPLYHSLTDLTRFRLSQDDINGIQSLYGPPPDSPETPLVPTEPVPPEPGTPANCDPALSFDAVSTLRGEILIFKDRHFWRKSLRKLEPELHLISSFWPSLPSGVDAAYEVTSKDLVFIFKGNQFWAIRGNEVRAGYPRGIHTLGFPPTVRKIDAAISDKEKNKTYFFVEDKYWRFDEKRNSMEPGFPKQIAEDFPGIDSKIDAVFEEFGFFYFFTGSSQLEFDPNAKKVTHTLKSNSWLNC
T2 sequence (P14780 107-707 limits assumed): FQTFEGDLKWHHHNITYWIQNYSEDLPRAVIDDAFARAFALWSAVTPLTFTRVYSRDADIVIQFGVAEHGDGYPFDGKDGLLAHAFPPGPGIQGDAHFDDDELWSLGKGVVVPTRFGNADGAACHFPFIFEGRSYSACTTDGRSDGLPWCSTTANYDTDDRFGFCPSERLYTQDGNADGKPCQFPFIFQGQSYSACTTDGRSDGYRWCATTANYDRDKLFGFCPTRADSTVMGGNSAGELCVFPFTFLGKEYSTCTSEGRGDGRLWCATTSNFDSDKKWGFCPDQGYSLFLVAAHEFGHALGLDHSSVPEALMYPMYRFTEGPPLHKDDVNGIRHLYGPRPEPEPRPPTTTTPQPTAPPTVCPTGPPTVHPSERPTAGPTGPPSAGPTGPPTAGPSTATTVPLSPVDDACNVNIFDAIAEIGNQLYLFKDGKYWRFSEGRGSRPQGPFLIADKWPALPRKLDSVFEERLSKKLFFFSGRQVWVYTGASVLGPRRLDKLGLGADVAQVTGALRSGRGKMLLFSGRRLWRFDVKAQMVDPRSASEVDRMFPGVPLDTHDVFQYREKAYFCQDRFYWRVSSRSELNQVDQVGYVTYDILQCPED

Structure (SMILES)	IC50 [1] [nM]	IC50 [2] [nM]	IC50 [3, 7] [nM]	further results
O=C(CC(CCCc1ccccc1)C(=O)O)c1ccc(-c2ccc(C#CCO)cc2)cc1 (racemic) [Compound I]	21	106	4	
CC(=O)OCC#Cc1ccc(-c2ccc(C(=O)CC(CCCc3ccccc3)C(=O)O)cc2)cc1 (stereo not drawn) [Compound VI, 4'-[3-(acetyloxy)-1-propynyl]-λ-oxo-α-(3-phenylpropyl)-[1,1'-biphenyl]-4-butanoic acid]	36	834	14	
CCOC(=O)OCC#Cc1ccc(-c2ccc(C(=O)CC(CCCc3ccccc3)C(=O)O)cc2)cc1 (stereo not drawn) [Compound VII, 4'-[3-[(ethoxycarbonyl)oxy]-1-propynyl]-λ-oxo-α-(3-phenylpropyl)-[1,1'-biphenyl]-4-butanoic acid]	67	2460	103	
CCCN(CC#Cc1ccc(-c2ccc(C(=O)CC(CCCc3ccccc3)C(=O)O)cc2)cc1)CCC (stereo not shown) [Compound V]	327	2630	235	
O=C(O)CCC#Cc1ccc(-c2ccc(C(=O)CC(CCCc3ccccc3)C(=O)O)cc2)cc1 (stereo not drawn) [Compound X, 4'-(4-carboxy-1-butynyl)-λ-oxo-α-(3-phenylpropyl)-[1,1'-biphenyl]-4-butanoic acid]	203		108	MMP-9 Fluorogenic, I (percent inhibition) [2]: 27%
O=CCCCC#Cc1ccc(-c2ccc(C(=O)CC(CCCc3ccccc3)C(=O)O)cc2)cc1 (stereo not drawn) [Compound XI, λ-oxo-4'-(5-oxo-1-pentynyl)-α-(3-phenylpropyl)-[1,1'biphenyl]-4-butanoic acid]	1730		596	MMP-9 Fluorogenic, I (percent inhibition) [2]: 24%
O=C(CC(CCN1C(=O)c2ccccc2C1=O)C(=O)O)c1ccc(-c2ccc(C#CCOCc3ccccc3)cc2)cc1 (stereo not drawn) [Compound XV, 1,3-dihydro-1,3-dioxo-α-[2-oxo-2-[4'-[3(phenylmethoxy)-1-propynyl][1,1'-biphenyl]-4-yl]ethyl]-2H-isoindole-2-butanoic acid]	11	40	5	
O=C(CC(CCN1C(=O)c2ccccc2C1=O)C(=O)O)c1ccc(-c2ccc(C#CCO)cc2)cc1 (stereo not shown) [Compound XVI]	4	2		IC50 [3]: 1 nM
O=C(C[C@H](CCCc1ccccc1)C(=O)O)c1ccc(-c2ccc(C#CCO)cc2)cc1 [II, S-4'-(3-hydroxy-1-propynyl)-λ-oxo-α-(3-phenylpropyl)-[1,1'-biphenyl]-4-butanoic acid]	2180		252	MMP-9 Fluorogenic, I (percent inhibition) [2]: 35%
O=C(C[C@@H](CCCc1ccccc1)C(=O)O)c1ccc(-c2ccc(C#CCO)cc2)cc1 [III]	5	37	1	
COCC#Cc1ccc(-c2ccc(C(=O)CC(CCCc3ccccc3)C(=O)O)cc2)cc1 (stereo not drawn) [IV, 4'-(3-methoxy-1-propynyl)-λ-oxo-α-(3-phenylpropyl)-[1,1'-biphenyl]-4-butanoic acid]	38	704	21	
CC(=O)OCCC#Cc1ccc(-c2ccc(C(=O)CC(CCCc3ccccc3)C(=O)O)cc2)cc1 (stereo not shown) [IX]	57	542	37	
O=C(O)CC(C(=O)c1ccc(-c2ccccc2)cc1)c1ccccc1 (stereo not shown) [LXXVII]				anti-inflammatory activity (in words) [4]: inactive
O=C(CC(CCCc1ccccc1)C(=O)O)c1ccc(-c2ccc(C#CCCO)cc2)cc1 (stereo not drawn) [VIII, 4'-(4-hydroxy-1-butynyl)-λ-oxo-α-(3-phenylpropyl)-[1,1'-biphenyl]-4-butanoic acid]	32	122	6	
O=C(CC(CCCc1ccccc1)C(=O)O)c1ccc(-c2ccc(C#Cc3ccccc3)cc2)cc1 (stereo not drawn) [XIII, λ-oxo-4'-(phenylethynyl)-α-(3-phenylpropyl)-[1,1'-biphenyl]-4-butanoic acid]	405		245	
O=C(CC(CCCc1ccccc1)C(=O)O)c1ccc(-c2ccc(C#CCCCCO)cc2)cc1 (stereo not shown) [XII]	56.6	614	36	
O=C(CC(CCCc1ccccc1)C(=O)O)c1ccc(-c2ccc(C#Cc3cccc(O)c3)cc2)cc1 (stereo not shown) [XIV]	125		85	MMP-9 Fluorogenic, I (percent inhibition) [2]: 46%
O=C(CC(C(=O)O)c1ccccc1)c1ccc(-c2ccccc2)cc1 (stereo not shown) [XLIX]				anti-inflammatory activity (in words) [4]: inactive
CNC(=O)[C@H](Cc1ccccc1)NC(=O)[C@H](CC(C)C)[C@H](CSc1cccs1)C(=O)NO [batimastat]				human colon tumor growth and spread [5]: inhibits human colon tumor growth and spread; survival of mice bearing human ovarian carcinoma xenografts [6]: prolongs the survival of mice
CC(CC(=O)c1ccc(-c2ccccc2)cc1)C(=O)O (stereo not shown) [compound XLVII]				anti-inflammatory activity (in words) [4]: inactive
